{"source": "ChEMBL document CHEMBL5236544", "about": "“Furazans in Medicinal Chemistry” (J Med Chem, 2021)", "key": {"[1]": {"system": "Canis familiaris", "test": "Cardioprotective activity in dogs assessed as reduction in aortic pressure at […], iv relative to control", "format": "functional, Canis lupus familiaris", "parameters": "scale not given: the % may be the effect or the level left"}, "[2]": {"system": "Canis familiaris", "test": "Cardioprotective activity in dogs assessed as increasing in coronary blood flow at 5.0 ug/kg, iv relative to control", "format": "functional, Canis lupus familiaris", "conditions": "dose 5 µg/kg"}, "[3]": {"system": "Canis familiaris", "test": "Cardioprotective activity in dogs assessed as increasing in coronary blood flow at […], iv relative to control", "format": "functional, Canis lupus familiaris"}, "[4]": {"test": "Inhibition of p70S6K (unknown origin)", "parameters": "species or system Homo sapiens"}, "[5]": {"biological_target": "Ribosomal protein S6 kinase alpha-1 (Homo sapiens, UniProt Q15418)", "sequence (Q15418 whole entry)": "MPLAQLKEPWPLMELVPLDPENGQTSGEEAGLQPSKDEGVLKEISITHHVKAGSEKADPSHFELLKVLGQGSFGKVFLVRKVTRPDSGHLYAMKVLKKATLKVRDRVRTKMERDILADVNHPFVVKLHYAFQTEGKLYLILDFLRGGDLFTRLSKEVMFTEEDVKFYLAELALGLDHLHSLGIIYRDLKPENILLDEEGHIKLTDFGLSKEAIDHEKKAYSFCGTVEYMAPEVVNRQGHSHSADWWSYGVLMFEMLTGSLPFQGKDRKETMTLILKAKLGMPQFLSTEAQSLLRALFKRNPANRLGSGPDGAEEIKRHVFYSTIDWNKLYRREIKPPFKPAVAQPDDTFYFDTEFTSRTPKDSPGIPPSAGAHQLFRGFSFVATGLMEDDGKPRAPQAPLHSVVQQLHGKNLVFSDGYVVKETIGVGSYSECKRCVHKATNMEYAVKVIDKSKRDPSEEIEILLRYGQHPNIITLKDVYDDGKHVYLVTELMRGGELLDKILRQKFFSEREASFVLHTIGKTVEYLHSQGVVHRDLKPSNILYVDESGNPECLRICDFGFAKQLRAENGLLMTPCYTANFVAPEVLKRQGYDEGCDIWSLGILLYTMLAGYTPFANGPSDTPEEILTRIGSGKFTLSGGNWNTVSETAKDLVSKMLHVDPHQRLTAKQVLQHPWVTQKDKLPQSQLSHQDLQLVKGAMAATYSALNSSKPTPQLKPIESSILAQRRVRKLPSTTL", "test": "Inhibition of RSK1 (unknown origin)"}, "[6]": {"test": "Inhibition of GSK3 (unknown origin)", "parameters": "species or system Homo sapiens"}, "[7]": {"system": "NT2", "test": "Inhibition of camptothecin induced apoptosis in human NT2 cells incubated for 5 hrs in presence of camptothecin by ELISA method", "format": "functional, cell-based", "conditions": "NT2, 5 h"}, "[8]": {"test": "Dissociation constant, pKa of compound", "format": "physicochemical"}, "[9]": {"system": "HCT-116", "test": "cells", "conditions": "Homo sapiens"}, "[10]": {"system": "LNCaP", "test": "Antiproliferative activity against human LNCaP cells assessed as reduction in cell viability", "format": "functional, cell-based"}, "[11]": {"system": "HT-29", "test": "cells", "conditions": "Homo sapiens", "description": "Antiproliferative activity against human HT-29 cells assessed as reduction in cell viability"}, "[12]": {"biological_target": "Prostaglandin G/H synthase 2 (Homo sapiens, UniProt P35354)", "sequence (P35354 whole entry)": "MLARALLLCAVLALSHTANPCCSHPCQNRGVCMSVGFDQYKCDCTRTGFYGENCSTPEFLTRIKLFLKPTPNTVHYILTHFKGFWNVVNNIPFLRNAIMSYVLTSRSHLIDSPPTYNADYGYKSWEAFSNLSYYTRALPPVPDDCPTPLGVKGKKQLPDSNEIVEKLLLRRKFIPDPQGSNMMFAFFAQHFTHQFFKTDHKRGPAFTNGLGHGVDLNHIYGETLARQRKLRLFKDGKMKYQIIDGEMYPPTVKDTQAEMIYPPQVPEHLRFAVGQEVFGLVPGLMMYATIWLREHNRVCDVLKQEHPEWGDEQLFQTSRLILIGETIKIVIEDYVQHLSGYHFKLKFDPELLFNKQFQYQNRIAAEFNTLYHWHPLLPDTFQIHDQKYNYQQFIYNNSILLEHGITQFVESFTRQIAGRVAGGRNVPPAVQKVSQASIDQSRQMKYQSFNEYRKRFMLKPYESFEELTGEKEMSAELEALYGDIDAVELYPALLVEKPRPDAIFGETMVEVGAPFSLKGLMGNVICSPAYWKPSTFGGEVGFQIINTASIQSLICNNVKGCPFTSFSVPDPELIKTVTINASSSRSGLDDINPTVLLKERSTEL", "test": "Inhibition of COX2 (unknown origin)"}, "[13]": {"biological_target": "Prostaglandin G/H synthase 1 (Homo sapiens, UniProt P23219)", "sequence (P23219 whole entry)": "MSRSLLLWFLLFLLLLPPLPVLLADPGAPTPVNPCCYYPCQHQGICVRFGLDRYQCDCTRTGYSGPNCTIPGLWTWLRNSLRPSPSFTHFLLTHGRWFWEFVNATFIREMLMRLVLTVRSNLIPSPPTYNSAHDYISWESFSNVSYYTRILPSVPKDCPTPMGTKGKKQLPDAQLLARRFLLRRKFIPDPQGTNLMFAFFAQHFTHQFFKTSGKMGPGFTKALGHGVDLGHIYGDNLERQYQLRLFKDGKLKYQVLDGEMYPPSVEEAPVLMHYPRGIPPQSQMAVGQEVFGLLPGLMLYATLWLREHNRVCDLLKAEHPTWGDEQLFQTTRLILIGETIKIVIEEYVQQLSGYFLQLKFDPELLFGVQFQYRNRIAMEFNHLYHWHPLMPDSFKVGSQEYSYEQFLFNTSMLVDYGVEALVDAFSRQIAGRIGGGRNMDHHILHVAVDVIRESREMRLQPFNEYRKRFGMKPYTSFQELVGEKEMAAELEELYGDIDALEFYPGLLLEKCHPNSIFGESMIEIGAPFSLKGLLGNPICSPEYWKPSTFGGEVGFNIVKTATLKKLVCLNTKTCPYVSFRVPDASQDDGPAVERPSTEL", "test": "Inhibition of COX1 (unknown origin)"}, "[14]": {"test": "Lipophilicity, log D of compound at pH 7.4", "format": "physicochemical", "conditions": "buffer"}, "[15]": {"biological_target": "Aldo-keto reductase family 1 member C3 (Homo sapiens, UniProt P42330)", "sequence (P42330 whole entry)": "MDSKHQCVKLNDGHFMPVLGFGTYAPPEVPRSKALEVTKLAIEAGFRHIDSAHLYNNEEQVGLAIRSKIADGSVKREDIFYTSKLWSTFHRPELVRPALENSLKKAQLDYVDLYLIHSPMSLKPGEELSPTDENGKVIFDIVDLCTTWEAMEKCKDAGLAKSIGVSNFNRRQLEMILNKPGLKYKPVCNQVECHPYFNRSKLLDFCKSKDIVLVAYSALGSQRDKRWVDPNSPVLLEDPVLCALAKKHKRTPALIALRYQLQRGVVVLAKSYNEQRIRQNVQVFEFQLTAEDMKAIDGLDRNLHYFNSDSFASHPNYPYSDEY", "test": "Inhibition of AKR1C3 (unknown origin)"}, "[16]": {"system": "Jurkat", "test": "Antiproliferative activity against human Jurkat cells assessed as reduction in cell viability measured after 48 hrs by MTT assay", "format": "functional, cell-based"}, "[17]": {"system": "HEL", "test": "Antiproliferative activity against human HEL cells assessed as reduction in cell viability measured after 48 hrs by MTT assay", "format": "functional, cell-based"}, "[18]": {"test": "Half life in mouse", "format": "ADME, organism-based", "conditions": "in vivo"}, "[19]": {"system": "K562", "test": "Antiproliferative activity against human K562 cells assessed as reduction in cell viability measured after 48 hrs by MTT assay", "format": "functional, cell-based", "conditions": "K562, 48 h"}, "[20]": {"test": "Stability in rat assessed as intrinsic clearance", "format": "ADME", "conditions": "CLH"}, "[21]": {"system": "HeLa", "test": "cells", "conditions": "Homo sapiens", "description": "Antiproliferative activity against human HeLa cells assessed as reduction in cell viability"}, "[22]": {"system": "HASMC", "test": "Antiproliferative activity against human HASMC cells assessed as inhibition of cell proliferation measured after 24 hrs by MTT assay", "format": "functional, cell-based"}, "[23]": {"species": "Rattus norvegicus", "test": "Antihypertensive activity in spontaneously hypertensive rat model assessed as reduction in systemic arterial pressure", "format": "functional"}, "[24]": {"species": "Rattus norvegicus", "test": "Antihypertensive activity in spontaneously hypertensive rat model assessed as reduction in pulmonary arterial pressure", "format": "functional"}, "[25]": {"biological_target": "c-Myc/c-Max (Homo sapiens, UniProt P01106+P61244)", "sequence (P01106 whole entry)": "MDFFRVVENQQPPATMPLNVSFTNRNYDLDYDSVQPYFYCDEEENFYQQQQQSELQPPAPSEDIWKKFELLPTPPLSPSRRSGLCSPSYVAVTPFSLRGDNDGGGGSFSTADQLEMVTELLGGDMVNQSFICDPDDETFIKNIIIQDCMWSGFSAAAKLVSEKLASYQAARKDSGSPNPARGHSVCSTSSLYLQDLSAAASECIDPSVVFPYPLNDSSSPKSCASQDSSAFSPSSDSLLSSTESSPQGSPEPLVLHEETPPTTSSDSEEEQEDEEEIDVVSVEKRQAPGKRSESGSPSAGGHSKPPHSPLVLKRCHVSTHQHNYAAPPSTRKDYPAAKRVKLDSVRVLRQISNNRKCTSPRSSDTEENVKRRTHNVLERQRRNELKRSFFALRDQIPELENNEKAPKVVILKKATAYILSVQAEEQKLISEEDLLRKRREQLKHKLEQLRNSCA", "sequence (P61244 whole entry)": "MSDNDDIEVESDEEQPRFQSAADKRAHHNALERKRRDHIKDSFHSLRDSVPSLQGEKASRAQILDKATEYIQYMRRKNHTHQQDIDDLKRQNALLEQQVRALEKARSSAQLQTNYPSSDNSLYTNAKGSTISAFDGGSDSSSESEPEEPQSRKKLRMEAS", "test": "Inhibition of Myc/Max (unknown origin)", "format": "protein assay"}, "[26]": {"system": "Daudi", "test": "Antiproliferative activity against human Daudi assessed as inhibition of cell proliferation by MTT assay", "format": "functional, cell-based"}, "[27]": {"system": "HL-60", "test": "Antiproliferative activity against (unknown origin) HL-60 assessed as inhibition of cell proliferation by MTT assay", "format": "functional, cell-based", "conditions": "Homo sapiens"}, "[28]": {"test": "physchem", "conditions": "octanol/water", "description": "Lipophilicity, log D of the compound"}, "[29]": {"system": "Canis familiaris", "test": "Cardioprotective activity in dogs assessed as reduction in aortic pressure at 5.0 ug/kg, iv relative to control", "format": "functional, Canis lupus familiaris", "parameters": "scale not given: the % may be the effect or the level left"}, "[30]": {"biological_target": "T1, Amyloid-beta precursor protein (Homo sapiens, UniProt P05067)", "T1 sequence (P05067 whole entry)": "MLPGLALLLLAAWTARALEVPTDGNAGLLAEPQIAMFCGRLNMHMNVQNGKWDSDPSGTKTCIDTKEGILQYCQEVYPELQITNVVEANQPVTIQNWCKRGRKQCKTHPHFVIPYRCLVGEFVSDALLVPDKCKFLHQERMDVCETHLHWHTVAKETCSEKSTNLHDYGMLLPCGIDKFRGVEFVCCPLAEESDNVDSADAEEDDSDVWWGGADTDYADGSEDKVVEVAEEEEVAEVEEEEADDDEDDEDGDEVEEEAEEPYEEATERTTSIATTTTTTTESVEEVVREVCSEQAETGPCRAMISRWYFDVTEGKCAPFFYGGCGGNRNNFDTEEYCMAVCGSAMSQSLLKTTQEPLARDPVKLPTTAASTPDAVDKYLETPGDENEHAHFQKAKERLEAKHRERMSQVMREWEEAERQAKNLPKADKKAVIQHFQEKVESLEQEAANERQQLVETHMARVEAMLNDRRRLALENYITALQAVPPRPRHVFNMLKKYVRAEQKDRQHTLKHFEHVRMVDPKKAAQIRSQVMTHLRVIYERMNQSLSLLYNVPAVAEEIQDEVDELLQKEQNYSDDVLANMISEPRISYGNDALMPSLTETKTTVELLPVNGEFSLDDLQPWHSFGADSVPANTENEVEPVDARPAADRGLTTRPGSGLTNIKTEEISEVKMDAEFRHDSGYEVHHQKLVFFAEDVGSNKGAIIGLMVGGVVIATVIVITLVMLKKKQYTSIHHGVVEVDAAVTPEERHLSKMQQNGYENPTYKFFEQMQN", "test": "Inhibition of amyloid beta 42 in human HEK293 cells", "format": "cell-based"}, "[31]": {"biological_target": "T1, Amyloid-beta precursor protein", "test": "Inhibition of amyloid beta 42 in human H4 cells", "format": "cell-based"}, "[32]": {"system": "HCT-116", "test": "Antiproliferative activity against human HCT-116 cells assessed as reduction in cell viability by MTT assay", "format": "functional, cell-based"}, "[33]": {"system": "Rattus norvegicus", "test": "Antihypertensive activity in spontaneously hypertensive rat model assessed as change in heart rate at 1 umol/kg, po measured after 3 hrs", "format": "functional"}, "[34]": {"system": "Rattus norvegicus", "test": "Antihypertensive activity in spontaneously hypertensive rat model assessed as change in blood pressure at 1 mg/kg, po measured after 10 hrs", "format": "functional"}, "[35]": {"system": "Rattus norvegicus", "test": "Antihypertensive activity in spontaneously hypertensive rat model assessed as change in heart rate at 1 mmol/Kg, po measured after 10 hrs", "format": "functional"}, "[36]": {"system": "Rattus norvegicus", "test": "Antihypertensive activity in spontaneously hypertensive rat model assessed as change in heart rate at 10 mg/Kg, po measured after 6 hrs", "format": "functional"}, "[37]": {"system": "Rattus norvegicus", "test": "Antihypertensive activity in spontaneously hypertensive rat model assessed as change in blood pressure at 1 mg/kg, po measured after 3 hrs", "format": "functional"}}, "data": [{"smiles": "CC1(C)Oc2cc3nonc3cc2[C@@H](N2CCCCC2=O)[C@@H]1O", "values": [{"measurement": "Activity", "setting": "[1]", "result": -7.5, "unit": "%"}, {"measurement": "Activity", "setting": "[2]", "result": 33.3, "unit": "%"}, {"measurement": "Activity", "setting": "[3]", "result": 34.3, "unit": "%"}]}, {"smiles": "CCn1c(-c2nonc2N)nc2cncc(CNC3CCNCC3)c21", "values": [{"measurement": "IC50", "setting": "[4]", "result": 0.27, "unit": "µM"}, {"measurement": "IC50", "setting": "[5]", "result": 0.155, "unit": "µM"}, {"measurement": "IC50", "setting": "[6]", "result": 1.9, "unit": "µM"}]}, {"smiles": "CC(=O)N[C@@H](CC(=O)O)C(=O)N[C@@H](CCC(=O)O)C(=O)N[C@H](C(=O)N[C@H](C=O)CC(=O)O)C(C)C", "values": [{"measurement": "EC50", "setting": "[7]", "result": "> 100", "unit": "µM"}]}, {"smiles": "COc1ccc2c(c1)c(Cc1nonc1O)c(C)n2C(=O)c1ccccc1", "values": [{"measurement": "pKa", "setting": "[8]", "result": 4.09}, {"measurement": "EC50", "setting": "[9]", "result": 78.9, "unit": "µM"}, {"measurement": "EC50", "setting": "[10]", "result": 141, "unit": "µM"}, {"measurement": "EC50", "setting": "[11]", "result": 135, "unit": "µM"}, {"measurement": "IC50", "setting": "[12]", "result": "> 100", "unit": "µM"}, {"measurement": "IC50", "setting": "[13]", "result": "> 100", "unit": "µM"}, {"measurement": "logD", "setting": "[14]", "result": 1.8}, {"measurement": "IC50", "setting": "[15]", "result": 0.3, "unit": "µM"}]}, {"smiles": "CC1(C)CC[C@]2(C(=O)O)CC[C@]3(C)C(=CC[C@@H]4[C@@]5(C)CC[C@H](O)C(C)(C)[C@@H]5CC[C@]43C)[C@@H]2C1", "note": "[OLEANOLIC_ACID]", "values": [{"measurement": "EC50", "setting": "[16]", "result": "> 1", "unit": "µM"}, {"measurement": "EC50", "setting": "[17]", "result": "> 1", "unit": "µM"}, {"measurement": "half-life", "setting": "[18]", "result": 42, "unit": "min"}, {"measurement": "EC50", "setting": "[19]", "result": "> 100", "unit": "µM"}]}, {"smiles": "Nc1nonc1C(=NO)Nc1ccc(F)c(Cl)c1", "values": [{"measurement": "CLint scaled", "setting": "[20]", "result": "> 36.7", "unit": "mL/min/kg"}, {"measurement": "EC50", "setting": "[21]", "result": 0.019, "unit": "µM"}]}, {"smiles": "O=c1[nH]ccc2cc(OC3CCNCC3)ccc12", "note": "[SAR-407899 FREE BASE]", "values": [{"measurement": "IC50", "setting": "[22]", "result": 0.122, "unit": "µM"}, {"measurement": "Activity", "setting": "[23]", "result": -19, "unit": "mmHg"}, {"measurement": "Activity", "setting": "[24]", "result": -6, "unit": "mmHg"}]}, {"smiles": "O=C(Oc1ccccc1)c1ccccc1Nc1ccc([N+](=O)[O-])c2nonc12", "values": [{"measurement": "IC50", "setting": "[25]", "result": 40, "unit": "µM"}, {"measurement": "EC50", "setting": "[26]", "result": 3.1, "unit": "µM"}, {"measurement": "EC50", "setting": "[27]", "result": 9.6, "unit": "µM"}]}, {"smiles": "O=[N+]([O-])c1ccccc1", "note": "[NITROBENZENE]", "values": [{"measurement": "logD", "setting": "[28]", "result": 1.6}]}, {"smiles": "O=C(O)c1ccc(-c2ccccc2Nc2ccc([N+](=O)[O-])c3nonc23)cc1", "values": [{"measurement": "IC50", "setting": "[25]", "result": 33, "unit": "µM"}, {"measurement": "EC50", "setting": "[26]", "result": 56, "unit": "µM"}, {"measurement": "EC50", "setting": "[27]", "result": 148, "unit": "µM"}]}, {"smiles": "CC1(C)Oc2ccc(C#N)cc2[C@@H](N2CCCC2=O)[C@@H]1O", "note": "[LEVCROMAKALIM]", "values": [{"measurement": "Activity", "setting": "[29]", "result": -11.2, "unit": "%"}]}, {"smiles": "CC(C)CC(C(=O)O)c1cc(Cl)c(OCC2CC2)c(-c2ccc3nonc3c2)c1", "note": "(stereo not given)", "values": [{"measurement": "EC50", "setting": "[30]", "result": 0.27, "unit": "µM"}]}, {"smiles": "O=C(O)[C@H](CC1CCC1)c1cc(Cl)c(OCC(F)(F)F)c(-c2ccc(C(F)(F)F)cc2)c1", "values": [{"measurement": "EC50", "setting": "[31]", "result": 0.07, "unit": "µM"}]}, {"smiles": "O=C(Nc1nonc1-c1ccc(Cl)cc1)c1ccc(C(F)(F)F)cc1", "values": [{"measurement": "EC50", "setting": "[32]", "result": 1.3, "unit": "µM"}]}, {"smiles": "CCn1c(-c2nonc2N)nc2cnc(Oc3cccc(NC(=O)c4ccc(OCCN5CCOCC5)cc4)c3)cc21", "note": "[GSK-269962A]", "values": [{"measurement": "Activity", "setting": "[33]", "result": 30, "unit": "bpm"}, {"measurement": "Activity", "setting": "[34]", "result": 0, "unit": "mmHg"}, {"measurement": "Activity", "setting": "[35]", "result": 0, "unit": "bpm"}, {"measurement": "Activity", "setting": "[36]", "result": 10, "unit": "bpm"}, {"measurement": "Activity", "setting": "[37]", "result": -20, "unit": "mmHg"}]}]}
